Laboratory results taken from patent EP0316212B1 (priority 1987, dated 1989).
Like-named read-outs stand apart in the source and are kept apart here.

Legend:
[1] = biological target: reverse transcriptase du HIV1 (Human immunodeficiency virus type 1 group M subtype B, UniProt P04585); assay: Reverse transcriptase activity of HIV1 incubated with NP derivatives, tested immediately; type: biochemical; details: témoin virus 11924
Experimental: (§1) La technique de culture et de titrage de la reverse-transcriptase du HIV est rappelée ci-après : Des lymphocytes humains, préalablement activés par la PHA (phytohémagglutinine) sont incubés dans un milieu nutritif (RPMI 1640 + sérum de veau foetal + antibiotiques + β-mercaptoéthanol 10⁻⁵M + 2»g/ml polybrene + sérum anti-interféron 1/2000 + IL2 10%). Après centrifugation, le culot cellulaire est mis en présence du HIV1 (10.000 cpm/10⁶ cellules) pendant 1 heure à 37°. Après lavage et centrifugation, les cellules sont resuspendues dans du milieu nutritif. Les surnageants de culture cellulaire sont suivis pendant plusieurs jours pour leur activité reverse transcriptase. Ils sont centrifugés 7 minutes à 95000 tours et le culot est lysé par du Triton® 0,1% (produit Touzart et Matignon). Un mélange réactionnel est ajouté (Tris, DTT (dithiothreitol), MgCl₂, KCl, PolyA, Oligo dT, ³HTTP, H₂O) et après 1 heure d'incubation à 37°C, la réaction est arrêtée avec du pyrophosphate de sodium et de l'acide nucléique de levure est ajouté pour aider la précipitation. De l'acide trichloracétique (TCA) est ajouté et la solution est laissée 15 minutes à 4°C. Après filtration sous vide avec des filtres millipores 0.45 »m et plusieurs lavages avec du TCA (0.5%), on procède au rinçage à l'éthanol, au sèchage en étuve 37° et enfin au comptage.
Le HIV1 est incubé 1 heure à 37° en présence d'AcN (D23, 621, N5-12), d'anticorps anti-NP (TNP11) ou en présence des dérivés NP (DNP-glycine et DNP-lysine). L'activité reverse transcriptase du HIV1 est testée immédiatement (cas des dérivés DNP-glycine et DNP-lysine). Alternativement, des lymphocytes humains sont infectés par le HIV1 préincubé avec les produits à tester, et la culture cellulaire est observée pendant 3 semaines par titrage de la reverse transcriptase. Durant cette période les cultures des lymphocytes humains ne contiennent pas d'anticorps ni d'antigène.

[2] = test system: HIV1; assay: HIV1 infection of human lymphocytes preincubated with antibodies or NP derivatives, reverse transcriptase in supernatants; type: cell-based; details: for activité reverse transcriptase (surnageants de culture): dérivés NP, concentration not given
Experimental: as §1
Les lymphocytes humains, préalablement activés par la PHA, sont incubés en présence des AcN, des anticorps anti-NP et des dérivés NP (DNP-glycine, DNP-lysine) pendant une nuit à 37°C. Le lendemain, le culot cellulaire est mis en présence du HIV1 pendant 1 heure à 37°C au bain-marie et les cellules sont resuspendues dans du milieu nutritif en présence des produits à tester. Les surnageants de culture sont testés pour l'activité reverse transcriptase pendant 3 semaines.

[3] = test system: IHDT-6 (International Health Division-Tumor-6); type: cell-based

Compound | Activité reverse transcriptase ([1]; 10^-3M) | Activité reverse transcriptase ([1]; 10^-6M) | Activité reverse transcriptase ([1]; 10^-7M) | Activité reverse transcriptase ([1]; 10^-9M) | activité reverse transcriptase (surnageants de culture) ([2]; 3 jours après l'infection, témoin virus 562) | activité reverse transcriptase (surnageants de culture) ([2]; 6 jours après l'infection, témoin virus 1274) | activité reverse transcriptase (surnageants de culture) ([2]; 10 jours après l'infection, témoin virus 94474) | activité reverse transcriptase (surnageants de culture) ([2]; 13 jours après l'infection, témoin virus 63944) | activité reverse transcriptase (surnageants de culture) ([2]; 18 jours après l'infection, témoin virus 73368) | activité reverse transcriptase (surnageants de culture) ([2]; 20 jours après l'infection, témoin virus 26840) | activité reverse transcriptase / infectivité virale par rapport au témoin virus (result in words) ([2]; lymphocytes incubés avec les produits) | % Inhibition ([3]; 0,3 mg/ml) [%] | % Inhibition ([3]; 0,6 mg/ml) [%] | % Inhibition ([3]; 0,07 mg/ml) [%] | % Inhibition ([3]; 0,15 mg/ml) [%] | % Inhibition ([3]; 1,2 mg/ml) [%] | % Inhibition ([3]; 2,4 mg/ml) [%]
O=C(O)CNc1ccc([N+](=O)[O-])cc1[N+](=O)[O-] [DNP-glycine, DNP-Glycine] | 5444 | 3424 | 4090 | 3638 | 1064 | 890 | 1234 | 1572 | 1276 | 1270 | peuvent conduire à une inhibition totale de l'infectivité virale |  |  |  |  |  | 
TNP-BSA |  |  |  |  |  |  |  |  |  |  |  | 37 | 51 | 21 | 31 | 73 | 72
